Measurements published in ChEMBL document CHEMBL1268854, “A Bisindole Alkaloid with Hedgehog Signal Inhibitory Activity from the Myxomycete Perichaena chrysosperma” (J Nat Prod, 2010).

Experiments:
[1] = Cytotoxicity against mouse C3H10T1/2 cells after 24 hrs; assay type: cell-based; conditions: C3H 10T1/2, 24 h
DU-145 = assay: Cytotoxicity against human DU145 cells after 24 hrs; assay type: functional, cell-based; conditions: DU-145, 24 h
[2] = Inhibition of hedgehog signaling pathway in human HaCaT cells assessed as inhibition of GLI1-mediated transcriptional activity; assay type: cell-based
PANC-1 = assay: Cytotoxicity against human PANC1 cells after 24 hrs; assay type: functional, cell-based; conditions: PANC-1, 24 h

With `COC1NC(=O)c2c1c1c3ccccc3[nH]c1c1[nH]c3cc(O)ccc3c21` (centres undefined) the IC50 [1] was > 14 µM, the IC50 (DU-145) was 4.2 µM and the IC50 [2] was 4.6 µM. The IC50 (PANC-1) was 5 µM.
